Experimental findings from patent US20050281764A1, “Use of EGF-R protein tyrosine kinase inhibitors for preventing photoaging in human skin” (priority 2000, published 2005) are described below.

The structures appear in SMILES notation.

One data set deals with cJUN protein. As to the kind of experiment: cJUN protein induced by UV radiation in skin of human volunteers (FIG. 3). The data set is classed as in vivo. The following applies: 5% genistein in DMSO, topical, occluded 24 hours; 2 MEDs UV; biopsy 8 hours after exposure; vs vehicle-treated skin. How it is done: The same procedure as described above was repeated, except that biopsy for cJUN protein was taken 8 hours after exposure to the UV radiation. […] The inset in the figure is a Western blot showing the amount of cJUN protein in genistein-treated versus vehicle-treated skin.

The test system of another data set is MMP-1 mRNA. As to the kind of experiment: MMP-1 mRNA induced by UV radiation in skin of human volunteers (FIG. 4). The data set is classed as in vivo. The settings on record: 5% genistein in DMSO, topical, occluded 24 hours; 2 MEDs UV; biopsy 24 hours after exposure; vs vehicle-treated skin. The method, then:
The same procedure as described above was repeated, except that biopsy for MMP-1 mRNA was taken 24 hours after exposure to the UV radiation.

For a further data set, the system named is JNK. As to the kind of experiment: JNK activation in UV-irradiated skin of human volunteers (FIG. 2). The following applies: occluded 24 hours.
Data set [1] has as its system IRAK (IL-1 Receptor-Activated Kinase). As to the kind of experiment: IRAK phosphorylation/activity in cells in culture. The data set is classed as cell-based. From the text:
IRAK (IL-1 Receptor-Activated Kinase) is a protein […] kinase (enzyme) that binds to and is activated by IL-1R (the IL-1 receptor) and in turn activates a pathway that leads to induction of c-JUN kinase, MMPs, and thus collagen degradation.

Another data set relates to c-JUN kinase. As to the kind of experiment: c-JUN kinase activity (phosphorylation of GST-c-jun) in cultured human keratinocytes after UV. Type of data set: cell-based.

Procedure for JNK: Human volunteers, each having given informed consent, were used to determine the effect, if any, of pretreatment of their skin with an EGF-R PTK inhibitor prior to exposure of the skin to UV radiation. […] On the hip or buttock skin of volunteers, the test solution was placed (or on adjacent areas if both solutions were used), and the areas occluded for 24 hours; thereafter, the area was biopsied, or it was exposed to 2 MEDs of UV radiation and biopsied after exposure.
After the volunteers' skin was occuled for 24 hours, it was biopsied, and other areas were exposed to 2 MEDs of UV radiation and then biopsied about 4 hours thereafter.

With `O=c1c(-c2ccc(O)cc2)coc2cc(O)cc(O)c12` [genistein, 4′,5,7-trihydroxyisoflavone], the “increase in the amount of cJUN protein after UV exposure” value with cJUN protein was “significantly inhibited”. The “increase in MMP-1 mRNA induced by UV” value with MMP-1 mRNA is “significantly inhibited”. Also, the “skin penetration of the topical solution” value in the data set on JNK (5% genistein in DMSO on human hip or buttock skin, inferred from the JNK results) is “able to penetrate the skin”. The JNK activation result in the data set on JNK (5% genistein in DMSO, topical, 2 MEDs UV, biopsy about 4 hours after exposure) is “significantly reduced the amount of JNK activated”.

On to `COc1cc2ncnc(Nc3cccc(Br)c3)c2cc1OC` [PD 153035], for which the “phosphorylated IRAK” value in data set [1] (PD 153035-treated cells exposed to IL-1) is on record as “no reduction in phosphorylated IRAK”; in data set [1] (cells treated with PD 153035 and then challenged with UV or EGF), “clearly had less phosphorylated IRAK”. In addition, the IRAK activity entry in data set [1] (cells in culture treated with PD 153035 alone, no challenge) is on record as “minimal baseline amount of IRAK activity”. Moreover, the phospho-GST-c-jun protein entry with c-JUN kinase (cultured human keratinocytes not exposed to UV) is listed as “baseline amount of phospho-GST-c-jun protein”. For the same compound, in the data set on c-JUN kinase (cultured human keratinocytes pretreated, then exposed to UV radiation), the phospho-GST-c-jun protein levels result was “comparable with the baseline levels”.
